{"source": "ChEMBL document CHEMBL5346899", "about": "“PKM2/PDK1 dual-targeted shikonin derivatives restore the sensitivity of EGFR-mutated NSCLC cells to gefitinib by remodeling glucose metabolism” (Eur J Med Chem, 2023)", "key": {"[1]": {"tested_on": "NCI-H1975", "experiment": "Induction of apoptosis in human NCI-H1975 cells assessed as early apoptotic cells at 0.5 micromol/L incubated for 24 hrs in presence of gefitinib by Annexin V-FITC/PI staining based analysis (reference value: 2.55%)", "format": "functional", "conditions": "dose 0.5 µmol/L, at 0.5 µM"}, "[2]": {"molecular_target": "T1, Pyruvate kinase PKM (Homo sapiens, UniProt P14618)", "T1 sequence (P14618 2-531 limits assumed)": "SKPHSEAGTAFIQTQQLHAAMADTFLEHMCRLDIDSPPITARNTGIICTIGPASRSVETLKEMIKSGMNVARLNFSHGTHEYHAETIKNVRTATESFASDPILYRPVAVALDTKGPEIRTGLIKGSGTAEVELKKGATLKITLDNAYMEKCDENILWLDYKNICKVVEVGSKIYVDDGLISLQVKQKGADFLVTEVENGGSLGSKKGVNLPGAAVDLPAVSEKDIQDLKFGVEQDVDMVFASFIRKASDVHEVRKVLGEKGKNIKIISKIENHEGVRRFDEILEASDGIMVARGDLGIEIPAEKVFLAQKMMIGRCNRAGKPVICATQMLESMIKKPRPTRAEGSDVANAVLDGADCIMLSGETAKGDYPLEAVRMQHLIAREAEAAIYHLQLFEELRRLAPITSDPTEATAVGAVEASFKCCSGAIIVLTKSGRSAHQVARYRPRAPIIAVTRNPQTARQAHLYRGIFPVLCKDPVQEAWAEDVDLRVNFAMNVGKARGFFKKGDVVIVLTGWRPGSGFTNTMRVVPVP", "experiment": "Activation of PKM2 in siRNA mediated PKM2 knockdown human NCI-H1975 cells at 1 to 2 micromol/L by Western blot analysis", "format": "cell-based", "conditions": "dose 1-2 µmol/L"}, "[3]": {"tested_on": "NCI-H1975", "experiment": "Induction of apoptosis in human NCI-H1975 cells assessed as regulation of Caspase-9 expression by Western blot analysis", "format": "functional, cell-based"}, "[4]": {"tested_on": "NCI-H1975", "experiment": "Inhibition of glycolysis in human NCI-H1975 cells assessed as reduction in glucose consumption incubated for 24 hrs by colorimetric assay", "format": "functional, cell-based"}, "[5]": {"tested_on": "HCC827", "experiment": "Induction of apoptosis in human HCC827 cells assessed as late apoptotic cells at 1 micromol/L incubated for 24 hrs by Annexin V-FITC/PI staining based analysis (reference value: 8.42%)", "format": "functional", "conditions": "dose 1 µmol/L, at 1 µM"}, "[6]": {"tested_on": "NCI-H1975", "experiment": "Induction of apoptosis in human NCI-H1975 cells transfected with siRNA assessed as late apoptotic cells at 1 micromol/L incubated for 24 hrs by Annexin V-FITC/PI staining based analysis (reference value: 4.03%)", "format": "functional", "conditions": "dose 1 µmol/L, at 1 µM"}, "[7]": {"tested_on": "NCI-H1975", "experiment": "Induction of apoptosis in human NCI-H1975 cells assessed as regulation of PARP expression by Western blot analysis", "format": "functional, cell-based"}, "[8]": {"tested_on": "HCC827", "experiment": "Antiproliferative activity against human HCC827 cells transfected with siRNA assessed as inhibition of cell growth incubated for 24 hrs by CCK-8 assay", "format": "functional, cell-based", "conditions": "HCC827, 24 h"}, "[9]": {"tested_on": "A549", "experiment": "Induction of apoptosis in human A549 cells assessed as late apoptotic cells at 2 micromol/L incubated for 24 hrs by Annexin V-FITC/PI staining based analysis (reference value: 3.18%)", "format": "functional", "conditions": "dose 2 µmol/L, at 2 µM"}, "[10]": {"tested_on": "HCC827", "experiment": "Antiproliferative activity against siRNA mediated PKM2 knockdown human HCC827 cells assessed as inhibition of cell growth incubated for 24 hrs by CCK-8 assay", "format": "functional, cell-based", "conditions": "HCC827, 24 h"}, "[11]": {"tested_on": "NCI-H1975", "experiment": "Induction of apoptosis in human NCI-H1975 cells with siRNA mediated […] knockdown assessed as late apoptotic cells at 1 micromol/L incubated for 24 hrs by Annexin V-FITC/PI staining based analysis (reference value: 6.25%)", "format": "functional", "conditions": "dose 1 µmol/L, at 1 µM"}, "[12]": {"tested_on": "A549", "experiment": "Induction of apoptosis in human A549 cells assessed as early apoptotic cells at 2 micromol/L incubated for 24 hrs by Annexin V-FITC/PI staining based analysis (reference value: […]%)", "format": "functional", "conditions": "dose 2 µmol/L"}, "[13]": {"molecular_target": "T2, [Pyruvate dehydrogenase (acetyl-transferring)] kinase isozyme 1, mitochondrial (Homo sapiens, UniProt Q15118)", "experiment": "Inhibition of PDK1 in human HCC827 cells at 1 to 2 micromol/L by Western blot analysis", "format": "cell-based", "conditions": "dose 1-2 µmol/L"}, "[14]": {"tested_on": "HCC827", "experiment": "Induction of apoptosis in human HCC827 cells assessed as late apoptotic cells at 2 micromol/L incubated for 24 hrs by Annexin V-FITC/PI staining based analysis (reference value: 8.42%)", "format": "functional", "conditions": "dose 2 µmol/L, at 2 µM"}, "[15]": {"tested_on": "NCI-H1975", "experiment": "Antiproliferative activity against siRNA mediated […] knockdown human NCI-H1975 cells assessed as inhibition of cell growth incubated for 24 hrs by CCK-8 assay", "format": "functional, cell-based", "conditions": "NCI-H1975, 24 h"}, "[16]": {"tested_on": "A549", "experiment": "cells", "format": "functional, cell-based", "conditions": "Homo sapiens, A549, 24 h", "description": "Antiproliferative activity against human A549 cells assessed as inhibition of cell growth incubated for 24 hrs by CCK-8 assay"}, "[17]": {"tested_on": "NCI-H1975", "experiment": "Effect on PKM2 protein expression in human NCI-H1975 cells at 1 to 2 micromol/L by Western blot analysis", "format": "functional, cell-based", "conditions": "dose 1-2 µmol/L"}, "[18]": {"tested_on": "NCI-H1975", "experiment": "cells", "format": "functional, cell-based", "conditions": "Homo sapiens, NCI-H1975, 24 h", "description": "Antiproliferative activity against human NCI-H1975 cells assessed as inhibition of cell growth incubated for 24 hrs by CCK-8 assay"}, "[19]": {"molecular_target": "T1, Pyruvate kinase PKM", "experiment": "Activation of PKM2 in human NCI-H1975 cells at 1 to 2 micromol/L by Western blot analysis", "format": "cell-based", "conditions": "filed as activator, dose 1-2 µmol/L"}, "[20]": {"tested_on": "NCI-H1975", "experiment": "Induction of mitochondrial transmembrane potential dissipation in human NCI-H1975 cells assessed as cells with high mitochondrial transmembrane potential at 1 micromol/L by FL-1/FL-2 channel based fluorescence analysis (reference value: 97.4%)", "format": "functional", "conditions": "dose 1 µmol/L; at 1 µM"}, "[21]": {"tested_on": "NCI-H1975", "experiment": "Induction of apoptosis in human NCI-H1975 cells assessed as early apoptotic cells at 1 micromol/L incubated for 24 hrs by Annexin V-FITC/PI staining based analysis (reference value: 1.88%)", "format": "functional", "conditions": "dose 1 µmol/L, at 1 µM"}, "[22]": {"molecular_target": "T2, [Pyruvate dehydrogenase (acetyl-transferring)] kinase isozyme 1, mitochondrial", "experiment": "Inhibition of PDK1 in human NCI-H1975 cells at 1 to 2 micromol/L by Western blot analysis", "format": "cell-based", "conditions": "dose 1-2 µmol/L"}, "[23]": {"tested_on": "A549", "experiment": "Induction of intracellular ROS accumulation in human A549 cells", "format": "functional, cell-based"}, "[24]": {"experiment": "Acute toxicity in ICR mouse assessed as reduction in animal survival rate at 2.4 to 38.4 mg/kg, ip administered once for 14 days and measured every day", "format": "organism-based", "conditions": "in vivo, 336 h, dose 2.4-38.4 mg/kg, time 14 day"}, "[25]": {"experiment": "in vitro", "conditions": "human, HEK293T cells", "description": "Cytotoxicity against HEK293T cells assessed as inhibition of cell growth incubated for 24 hrs by CCK-8 assay"}, "[26]": {"tested_on": "NCI-H1975", "experiment": "Induction of apoptosis in human NCI-H1975 cells assessed as regulation of Smac expression by Western blot analysis", "format": "functional, cell-based"}, "[27]": {"tested_on": "NCI-H1975", "experiment": "Inhibition of glycolysis in human NCI-H1975 cells assessed as reduction in lactate production incubated for 1 hrs by colorimetric assay", "format": "functional, cell-based"}, "[28]": {"tested_on": "NCI-H1299", "experiment": "Induction of apoptosis in human NCI-H1299 cells assessed as late apoptotic cells at 1 micromol/L incubated for 24 hrs by Annexin V-FITC/PI staining based analysis (reference value: 14.9%)", "format": "functional", "conditions": "dose 1 µmol/L, at 1 µM"}, "[29]": {"tested_on": "NCI-H1975", "experiment": "Antiproliferative activity against human NCI-H1975 cells assessed as inhibition of clone formation rate", "format": "functional, cell-based"}, "[30]": {"tested_on": "NCI-H1299", "experiment": "Induction of intracellular ROS accumulation in human NCI-H1299 cells", "format": "functional, cell-based"}, "[31]": {"tested_on": "NCI-H1975", "experiment": "Induction of intracellular ROS accumulation in human NCI-H1975 cells", "format": "functional, cell-based"}, "[32]": {"tested_on": "NCI-H1975", "experiment": "Upregulation of PDH protein expression in human NCI-H1975 cells at 1 to 2 micromol/L by Western blot analysis", "format": "functional, cell-based", "conditions": "dose 1-2 µmol/L"}, "[33]": {"tested_on": "HCC827", "experiment": "Upregulation of PDH protein expression in human HCC827 cells at 1 to 2 micromol/L by Western blot analysis", "format": "functional, cell-based", "conditions": "dose 1-2 µmol/L"}, "[34]": {"tested_on": "NCI-H1975", "experiment": "Antiproliferative activity against human NCI-H1975 cells assessed as reduction in clone size", "format": "functional, cell-based"}, "[35]": {"tested_on": "NCI-H1975", "experiment": "Induction of apoptosis in human NCI-H1975 cells assessed as late apoptotic cells at 1 micromol/L incubated for 24 hrs by Annexin V-FITC/PI staining based analysis (reference value: 2.66%)", "format": "functional", "conditions": "dose 1 µmol/L, at 1 µM"}, "[36]": {"tested_on": "HCC827", "experiment": "Induction of apoptosis in human HCC827 cells assessed as early apoptotic cells at 2 micromol/L incubated for 24 hrs by Annexin V-FITC/PI staining based analysis (reference value: 9.14%)", "format": "functional", "conditions": "dose 2 µmol/L, at 2 µM"}, "[37]": {"tested_on": "NCI-H1975", "experiment": "Induction of apoptosis in human NCI-H1975 cells assessed as regulation of cytochrome c expression by Western blot analysis", "format": "functional, cell-based"}, "[38]": {"tested_on": "NCI-H1975", "experiment": "Induction of apoptosis in human NCI-H1975 cells assessed as regulation of cleaved Caspase-3 expression by Western blot analysis", "format": "functional, cell-based"}}, "note": "Activity calls are given as the source filed them. The calls are words filed in the database; no cut-off is given here.", "data": [{"smiles": "COC(=O)[C@H](CS[C@H](CC=C(C)C)C1=CC(=O)c2c(O)ccc(O)c2C1=O)NC(=O)CCCC[C@@H]1CCSC(c2ccccc2C)S1", "note": "(stereo partly drawn)", "values": [{"measurement": "Activity", "setting": "[1]", "value": 17.6, "unit": "%"}, {"measurement": "Activity", "setting": "[2]", "value": "inactive"}, {"measurement": "Activity", "setting": "[3]", "value": "Active"}, {"measurement": "inhibition", "setting": "[4]", "value": "Active"}, {"measurement": "Activity", "setting": "[5]", "value": 12.1, "unit": "%"}, {"measurement": "Activity", "setting": "[6]", "value": 7.86, "unit": "%"}, {"measurement": "Activity", "setting": "[7]", "value": "Active"}, {"measurement": "IC50", "setting": "[8]", "value": 6, "unit": "µM"}, {"measurement": "Activity", "setting": "[9]", "value": 6.46, "unit": "%"}, {"measurement": "IC50", "setting": "[10]", "value": 13, "unit": "µM"}, {"measurement": "Activity", "setting": "[11]", "value": 4.95, "unit": "%"}, {"measurement": "Activity", "setting": "[12]", "value": 11.8, "unit": "%"}, {"measurement": "inhibition", "setting": "[13]", "value": "Active"}, {"measurement": "Activity", "setting": "[14]", "value": 41.1, "unit": "%"}, {"measurement": "IC50", "setting": "[15]", "value": 9, "unit": "µM"}, {"measurement": "IC50", "setting": "[16]", "value": 6.26, "unit": "µM"}, {"measurement": "Activity", "setting": "[17]", "value": "inactive"}, {"measurement": "IC50", "setting": "[18]", "value": 1.51, "unit": "µM"}, {"measurement": "Activity", "setting": "[19]", "value": "Active"}, {"measurement": "Activity", "setting": "[20]", "value": 62.2, "unit": "%"}, {"measurement": "Activity", "setting": "[21]", "value": 3.84, "unit": "%"}, {"measurement": "inhibition", "setting": "[22]", "value": "Active"}, {"measurement": "Activity", "setting": "[23]", "value": "Active"}, {"measurement": "Activity", "setting": "[24]", "value": "Non-Toxic"}, {"measurement": "IC50 at 24 h", "setting": "[25]", "value": 99.5, "unit": "µM"}, {"measurement": "Activity", "setting": "[26]", "value": "Active"}, {"measurement": "inhibition", "setting": "[27]", "value": "Active"}, {"measurement": "Activity", "setting": "[28]", "value": 16.7, "unit": "%"}, {"measurement": "Activity", "setting": "[29]", "value": "Dose-Dependent Effect"}, {"measurement": "Activity", "setting": "[30]", "value": "Active"}, {"measurement": "Activity", "setting": "[31]", "value": "Active"}, {"measurement": "Activity", "setting": "[32]", "value": "Active"}, {"measurement": "Activity", "setting": "[33]", "value": "Active"}, {"measurement": "Activity", "setting": "[34]", "value": "Dose-Dependent Effect"}, {"measurement": "Activity", "setting": "[35]", "value": 23.6, "unit": "%"}, {"measurement": "Activity", "setting": "[36]", "value": 29.4, "unit": "%"}, {"measurement": "Activity", "setting": "[37]", "value": "Active"}, {"measurement": "Activity", "setting": "[38]", "value": "Active"}]}]}
